Laboratory results published in patent US20220152117A1, “METHODS OF PROMOTING CELLULAR MATURATION WITH AMPK ACTIVATORS” (UNIVERSITY OF WASHINGTON, priority 2019, published 2022).

Assays:
Type in all cases: cell-based, human
hPSC-CMs [1] = assay: Immunocytochemistry, imaging and morphological analysis (cell size, circularity index)
Procedure: Cells were fixed in 4% paraformaldehyde for 10 min followed by PBS wash. The fixed cells were blocked with 1.5% normal goat serum for 1 hour at room temperature and incubated overnight at 4° C. with primary antibodies. Mouse anti-α-actinin (Sigma) was used. The samples were rinsed with PBS and incubated with a secondary antibody. Samples subjected to F-actin staining were incubated with TRITC-labeled phalloidin (Sigma) for 5 min at room temperature. Nuclei were stained with Hoechst 33342. Fluorescent images were acquired using a Zeiss AxioCam™ mounted on a Zeiss AxioObserver Microscope™, and confocal images were processed and quantified using NIS Elements. Each cell was analyzed for cell size and circularity index.

control cardiomyocytes = assay: TUNEL cell viability assay, control cardiomyocytes from normal iPSCs; conditions: two weeks treatment, TUNEL with α-actinin co-stain
Procedure: The normal and mutant Plakophilin 2 (PKP2) cells were generated as described previously^37. Induced pluripotent cells were cultured with E8 medium in Matrigel® coated plates. Cardiomyocytes were obtained using a protocol based on Lian et al^38 that involves Wnt agonist CHIR 99021 in the early stages of differentiation followed by the Wnt antagonist IWP2 under monolayer condition. Before Day 7, cells were cultured in RPMI plus B27 without insulin while on Day 7 and afterwards, EB media (KO-DMEM with 2% FBS, 1 mM NEAAs, 1× GlutaMAX, 1 mM mercaptoethanol, and penicillin/streptomycin) was used. At 30 days of differentiation, beating EBs were treated with three factors (3F) (50 μg/ml insulin, 0.5 μM dexamethasone, and 0.25 mM IBMX) or five factors (5F) (3F plus PPAR-γ agonists 5 μM rosiglitazone and 200 μM indomethacin) media as described earlier or treated with 1 mM AICAR or AICAR plus rosiglitazone and indomethacin for two weeks. TUNEL staining with In Situ Cell Death Detection Kit TMR Red™ (Roche®) was used to assess cell viability after conducting different treatment. TUNEL staining was co-stained with anti-α-actinin antibody so that cardiomyocyte-specific apoptosis could be assessed.

hPSC-CMs [2] = assay: Western blotting with phospho-specific antibodies (pACC, pAMPK, pAkt, pERK, p-p38-MAPK)
Procedure: Total protein was acquired from control cardiomyocytes or cardiomyocytes after two weeks of AICAR treatment and subjected to SDS-PAGE. The lanes were loaded with equal amount of protein and were checked by Ponceau S staining. After blocking with 5% milk, the membranes were incubated with anti-pACC ([…]) rabbit polyclonal antibody (Cell Signaling Technology), anti-pAMPK, anti-pAkt, anti-pERK, anti-p38-MAPK, or anti-GAPDH mouse monoclonal antibody (Abcam) overnight while shaking at 4° C. After incubation with anti-rabbit (for pACC) and anti-mouse (for GAPDH, pAMPK, pAkt, pERK, and p-p38-MAPK) horseradish peroxidase-coupled secondary antibody (Santa Cruz Biotechnology®), bands were visualized with SuperSignal West Femto Trial KitTM (Thermo Scientific®). The immunoblots band densities were analyzed in Image J.

hPSC-CMs [3] = assay: Quantitative RT-PCR gene expression in cardiomyocytes
Procedure: Total RNA was isolated using the Qiagen RNeasy Kit™, and mRNA was reverse transcribed using the Superscript™ III first strand cDNA synthesis kit (Invitrogen®). All primers were purchased from Real Time Primers, and qRT-PCR was performed using SYBR™ green chemistry and an ABI 7900HT instrument or TAQMAN™ with BIORad CXF384™. Samples were normalized using hypoxanthine-guanine phosphoribosylthransferase (HPRT) as a housekeeping gene. The sequences of the primers are listed below in Table 1. The primers used for titin isoforms were adapted from^29. All Q-RT-PCR assays were performed in triplicate on control and experimental groups and firstly normalized to hHPRT level and then normalized against control cardiomyocytes. N=4-5 independent experiments.

hiPSC-derived neurons [4] = assay: mtDNA:nDNA ratio by quantitative PCR in neurons; conditions: two weeks of treatment with AICAR every third day
hiPSC-derived neurons [5] = assay: Quantitative RT-PCR gene expression in neurons
hPSC-CMs [6] = assay: Mitochondrial oxidation of glucose, Seahorse XF96 maximum respiration capacity; conditions: AICAR treated vs control
Procedure: The Seahorse XF96 extracellular flux Analyzer™ was used to assess mitochondria function with glucose as substrate. Cell preparation and treatment for this assay were the same as the palmitate assay. On the assay day, culture medium was changed to base media (unbuffered DMEM, Sigma D5030, supplemented with 2 mM glutamine, 25 mM glucose, 1 mM pyruvate) 1 hour before the assay and for the duration of the measurement. Selective inhibitors were injected during the measurements to achieve final concentrations of oligomycin at 2.5 μM, FCCP at 1 μM, rotenone at 2.5 μM, and antimycin A at 2.5 μM. The OCR values were further normalized to the number of cells present in each well, quantified by Hoechst staining. Maximal OCR was the OCR difference between uncoupler FCCP and ATPase inhibitor oligomycin. Due to variations in the absolute magnitude of OCR measurements in different experiments, the relative AICAR treated/untreated control levels were used to compare and summarize independent biological replicates (N=6).

[7] = AICAR treated vs control hPSC-CMs
[8] = hPSC-CMs, normalized to HPRT then to control cells
[9] = normalized to HPRT then to control cells

NC(=O)c1ncn([C@@H]2O[C@H](CO)[C@@H](O)[C@H]2O)c1N [AICAR, 5-amino-4-imidazolecarboxamide riboside-1-β-D-ribofuranoside]
circularity index (hPSC-CMs [1]; AICAR-treated hPSC-CMs, control 0.51±0.01): 0.40±0.02 | cell area (hPSC-CMs [1]; AICAR-treated hiPSC-CMs, control 1141±40): 2321±120 μm^2 | apoptosis in control cardiomyocytes (control cardiomyocytes): None of the treatment groups significantly leads to apoptosis | phopho-p38-MAPK (hPSC-CMs [2]; 1 mM AICAR, time course): Transient increases | phospho-ERK (hPSC-CMs [2]; 1 mM AICAR, time course): Transient increases | phospho-Thr172-AMPK phosphorylation (hPSC-CMs [2]; 1 mM AICAR, time course): rapid robust transient | phosphorylation of Akt at Ser473 (hPSC-CMs [2]; 1 mM AICAR, time course): increased | phosphorylation of Ser79-ACC (hPSC-CMs [2]; 1 mM AICAR, time course): rapid, time-dependent increase | phospho-ACC (Ser 79) level by immunoblot vs control cells (hPSC-CMs [2]; two weeks of AICAR treatment, same exposure conditions): more than one thousand-fold increase | cTnI expression levels (hPSC-CMs [3]; [7]): upregulated | ssTnI to cTnI ratio (hPSC-CMs [3]; [7]): significantly downregulated | titin N2B expression level (hPSC-CMs [3]; [7]): significantly upregulated | titin N2BA expression level (hPSC-CMs [3]; [7]): did not change | titin N2BA to N2B ratio (hPSC-CMs [3]; [7]): significantly down-regulated | total titin expression level (hPSC-CMs [3]; [7]): did not change | FABP and PDK4 gene expression levels in cardiomyocytes derived from RUES2 hESCs (hPSC-CMs [3]; RUES2 hESC-derived cardiomyocytes): same trend of changes | fatty acid binding protein (FABP) expression level (hPSC-CMs [3]; [8]): significant increase | pyruvate dehydrogenase kinase-4 (PDK4) expression level (hPSC-CMs [3]; [8]): significant increase | PGC-1α mRNA level (hPSC-CMs [3]; [9]): 2.07±0.31 | estrogen-related receptor α (ERR α) mRNA level (hPSC-CMs [3]; [9]): 1.50±0.12 | mitochondrial transcription factor A (TFAM) mRNA level (hPSC-CMs [3]; [9]): 2.03±0.11 | peroxisome proliferator activated receptor alpha (PPARα) mRNA level (hPSC-CMs [3]; [9]): 1.78±0.22 | KCNJ2 expression (hPSC-CMs [3]; vs. control): 1.71±0.17 fold | SCN5a expression (hPSC-CMs [3]; vs. control): 1.58±0.2 fold | α-myosin heavy chain (α-MHC) expression (hPSC-CMs [3]; vs. control): 2.64±0.51 fold | mtDNA/nDNA ratio in neurons (hiPSC-derived neurons [4]): increase | NeuN mRNA in neurons (hiPSC-derived neurons [5]; compared to control neurons): significant increase | PPARα expression in neurons (hiPSC-derived neurons [5]; [9]): increased | TFAM expression in neurons (hiPSC-derived neurons [5]; [9]): increased | PDK4 expression in neurons (hiPSC-derived neurons [5]; two weeks of treatment with AICAR every third day): increase | maximum mitochondrial respiration capacity (hPSC-CMs [6]): significantly increased
